The numbers were not newly measured in patent US9084671B2, “Methods of forming a micronized peptide coated stent” (ABBOTT CARDIOVASCULAR SYSTEMS INC., priority 2002, dated 2015), which cites them from elsewhere.

The conditions of the data set: stated as a property of the highly cationic guanidinium peptide; no method given.

As for heptaarginine [heptamer of L-arginine], the pKa is recorded as 13.2.
